Measured values reported in patent US20250108119A1, “NOVEL STEROID PAYLOADS, STEROID LINKERS, ADCs CONTAINING AND USE THEREOF” (IMMUNEXT, INC., priority 2021, published 2025).

Legend:
[1] = system: human PBMC; assay: Cytokine production (IL-1β, IL-6) at 24 hr by human PBMC incubated with 1 ng/mL LPS; type: cell-based; conditions: for inhibition of IL-1β production / inhibition of IL-6 production: free steroid payloads, serial dilutions, 1 ng/mL LPS, 24 hr
Experimental: FIG. 51: INX-SM-3, INX-SM-4, and INX-SM-1 inhibit IL-1β (left) and IL-6 (right) production. Cytokine levels were measured at 24 hr for human PBMCS incubated with 1 ng/mL LPS and serial dilutions (1000-1 nM) of steroid payloads, with the no treatment control plotted on the log-scale x-axis at <1 nM; n=1 donor, standard deviation plotted from technical duplicates.
FIG. 52: INX-SM-1, INX-SM-3, INX-SM-4 and INX-SM-6 inhibit IL-1β production. Cytokine levels measured at 24 hr for human PBMCS incubated with 1 ng/ml LPS and serial dilutions (1000-1 nM) of steroid payloads, with the no treatment control plotted on the log-scale x-axis at <1 nM; n=1 donor, standard deviation plotted from technical duplicates.
FIG. 53: INX-SM-9, INX-SM-31 and INX-SM-35 inhibit IL-1β (top) and IL-6 (bottom) production. Cytokine levels measured at 24 hr for human PBMCS incubated with 1 ng/mL LPS and serial dilutions (1000-0.2 nM) of steroid payloads, with the no treatment control plotted on the log-scale x-axis at <0.2 nM; n=2 donors-representative donor shown. Standard deviation plotted from technical duplicates.
FIG. 54: INX-SM-32 inhibits IL-1β (top) and IL-6 (bottom) production. Cytokine levels measured at 24 hr for human PBMCS incubated with 1 ng/mL LPS and serial dilutions (500-1 nM) of steroid payloads, with the no treatment control plotted on the log-scale x-axis at <1 nM; n=2. Representative donor shown. Standard deviation plotted from technical duplicates.
Cytokine levels measured at 24 hr for human PBMCS incubated with 1 ng/ml LPS and serial dilutions (1000-0.5 nM) of steroid payloads, with the no treatment control plotted on the log-scale x-axis at <0.5 nM; n=1 donor, standard deviation plotted from technical duplicates.
FIG. 56: INX-SM-2 and INX-SM-7 show inhibition in IL-1β. Average Cytokine levels measured at 24 hr for human PBMCS incubated with 1 ng/ml LPS and serial dilutions (1000-0.16 nM) of steroid payloads, with the no treatment control plotted on the log-scale x-axis at <0.16 nM; n=1, standard deviation plotted from technical duplicates. […]
Average cytokine levels measured at 24 hr for human PBMC incubated with 1 ng/ml LPS and serial dilutions (100-0.032 nM) of glucocorticoid payloads; n=1, mean of technical duplicates.
Average cytokine levels measured at 24 hr for human PBMC incubated with 1 ng/mL LPS and serial dilutions (1000-0.32 nM) of glucocorticoid payloads; n=1, mean of technical duplicates.
Cytokine levels measured at 24 hr for human PBMC incubated with 1 ng/mL LPS and serial dilutions (1000-0.5 nM) of steroid payloads, with the no treatment control plotted on the log-scale x-axis at <0.5 nM; n=1 donor, mean of technical duplicates plotted.
Average cytokine levels for A. hull-1β B. huIL-6 measured at 24 hr for human PBMC incubated with 1 ng/mL LPS and serial dilutions (1000-0.16 nM) of conjugated steroid linker payloads, with the no treatment control plotted on the log-scale x-axis at <0.16 nM; n=1, standard deviation plotted from technical duplicates. Values above the ULOQ (12,500 pg/mL for IL-1b and 150,000 pg/mL for IL-6) were plotted as the extrapolated value.
Average cytokine levels for IL-1β measured at 24 hr for human PBMC incubated with 1 ng/mL LPS and serial dilutions (1000-0.16 nM) of conjugated steroid linker payloads, with the no treatment control plotted on the log-scale x-axis at <0.16 nM; n=1, mean plotted of technical duplicates
Average cytokine levels for IL-1β measured at 24 hr for human PBMC incubated with 1 ng/mL LPS and serial dilutions (1000-0.16 nM) of conjugated steroid linker payloads, with the no treatment control plotted on the log-scale x-axis at <0.16 nM; n=1, mean plotted of technical duplicates.
FIG. 66: Analogs of INX V are potent relative to INX231J. […]

[2] = system: LPS stimulated human PBMCs; assay: LPS stimulated human PBMC, IL-1β and IL-6 ELISA; type: cell-based
Experimental: The potency of novel steroids was assessed in a model of LPS stimulated human peripheral blood mononuclear cells (PBMCS). Stimulated PBMCs in this assay produce multiple pro-inflammatory cytokines1.
In all the following experiments, human PBMC, isolated from 1-2 healthy donors per study, were stimulated with LPS to induce cytokine production.
LPS was added either immediately after addition of free payload, or in the case of conjugates, four hours after addition of the conjugate.
Cells were plated in flat bottom 96 well plates at a final concentration of 150,000 cells/well, with technical duplicates for each condition.
Test agents were serially diluted in the assay media and added to a final concentration of 1,000 nM-1 nM or 0.2 nM depending on the assay or as a no treatment control.
LPS stimulation was added to a final concentration of 1 ng/ml.
Human IL-1β and IL-6 ELISA kits were used on supernatants according to vendor protocols. All graphs were prepared with GraphPad (Prism).

SMILES | inhibition of IL-1β production [1] | inhibition of IL-6 production [1] | also measured
CNC1CC(Cc2ccc([C@@H]3O[C@@H]4C[C@H]5[C@@H]6CCC7=CC(=O)C=C[C@]7(C)[C@H]6[C@@H](O)C[C@]5(C)[C@]4(C(=O)CO)O3)cc2)C1 (stereo partly drawn) [INX-SM-49, (6aR,6bS,7S,8aS,8bS,10R,11aR,12aS,12bS)-7-hydroxy-8b-(2-hydroxyacetyl)-6a,8a-dimethyl-10-(4-((3-(methylamino)cyclobutyl)methyl)phenyl)-1,2,6a,6b,7,8,8a,8b,11a,12,12a,12b-dodecahydro-4H-naphtho[2′,1′:4,5]indeno[1,2-d][1,3]dioxol-4-one] | weakly inhibit | weakly inhibit | inhibition of IL-1β and IL-6 ([2]; Experiment 12: free payloads 1000-0.15 nM): weakly inhibit IL-1β and IL-6
C[C@]12C=CC(=O)C=C1CC[C@@H]1[C@@H]2[C@@H](O)C[C@@]2(C)[C@H]1C[C@H]1O[C@@H](c3ccc(CC4CC5(CC(N)C5)C4)cc3)O[C@]12C(=O)CO (stereo partly drawn) [INX-SM-32, (6aR,6bS,7S,8aS,8bS,10R,11aR,12aS,12bS)-10-(4-((6-aminospiro[3.3]heptan-2-yl)methyl)phenyl)-7-hydroxy-8b-(2-hydroxyacetyl)-6a,8a-dimethyl-1,2,6a,6b,7,8,8a,8b,11a,12,12a,12b-dodecahydro-4H-naphtho[2′,1′:4,5]indeno[1,2-d][1,3]dioxol-4-one] | inhibits | inhibits | inhibition of IL-1β and IL-6 production ([2]; Experiment 4: free payload 500-1 nM, 24 hr, n=2): dose dependent inhibition in IL-1β and IL-6 production
C[C@]12C=CC(=O)C=C1[C@@H](F)C[C@H]1[C@@H]3C[C@H]4O[C@@H](c5ccc(CC6CC7(CC(N)C7)C6)cc5)O[C@@]4(C(=O)CO)[C@@]3(C)C[C@H](O)[C@@]12F (stereo partly drawn) [INX-SM-25, (2S,6aS,6bR,7S,8aS,8bS,10R,11aR,12aS,12bS)-10-(4-((6-aminospiro[3.3]heptan-2-yl)methyl)phenyl)-2,6b-difluoro-7-hydroxy-8b-(2-hydroxyacetyl)-6a,8a-dimethyl-1,2,6a,6b,7,8,8a,8b,11a,12,12a,12b-dodecahydro-4H-naphtho[2′,1′:4,5]indeno[1,2-d][1,3]dioxol-4-one] | robust inhibition | – | inhibition of IL-1β production ([2]; Experiment 8: free payload 1000-0.5 nM): robust inhibition in IL-1B production
C[C@]12C=CC(=O)C=C1CC[C@@H]1[C@@H]2[C@@H](O)C[C@@]2(C)[C@H]1C[C@H]1O[C@@H](c3ccc(CC45CCC(N)(CC4)CC5)cc3)O[C@]12C(=O)CO [INX-SM-10, (6aR,6bS,7S,8aS,8bS,11aR,12aS,12bS)-10-(4-((4-aminobicyclo[2.2.2]octan-1-yl)methyl)phenyl)-7-hydroxy-8b-(2-hydroxyacetyl)-6a,8a-dimethyl-1,2,6a,6b,7,8,8a,8b,11a,12,12a,12b-dodecahydro-4H-naphtho[2′,1′:4,5]indeno[1,2-d][1,3]dioxol-4-one] | robust inhibition | robust inhibition | inhibition of IL-1β and IL-6 production ([2]; Experiment 5: free payload 1000-0.5 nM, 24 hr): robust inhibition in IL-1β (top) and IL-6 (bottom) production
C[C@]12C=CC(=O)C=C1CC[C@@H]1[C@@H]2[C@@H](O)C[C@@]2(C)[C@H]1C[C@H]1O[C@@H](c3ccc(CC4(N)CC(F)(F)C4)cc3)O[C@]12C(=O)CO [INX-SM-35, (6aR,6bS,7S,8aS,8bS,10R,11aR,12aS,12bS)-10-(4-((1-amino-3,3-difluorocyclobutyl)methyl)phenyl)-7-hydroxy-8b-(2-hydroxyacetyl)-6a,8a-dimethyl 1,2,6a,6b,7,8,8a,8b,11a,12,12a,12b-dodecahydro-4H-naphtho[2′,1′:4,5]indeno[1,2-d][1,3]dioxol-4-one] | inhibit | inhibit | inhibition of IL-1β production ([2]; Experiment 3: free payload 1000-0.2 nM, 24 hr, n=2 donors): dose dependent inhibition in IL-1β production
C[C@]12C=CC(=O)C=C1[C@@H](F)C[C@H]1[C@@H]3C[C@H]4O[C@@H](c5ccc(CC6CC7(C6)CC(NC(=O)[C@H](CCC(=O)O)NC(=O)CNC(=O)CBr)C7)cc5)O[C@@]4(C(=O)CO)[C@@]3(C)C[C@H](O)[C@@]12F (stereo partly drawn) [INX A23, (S)-4-(2-(2-bromoacetamido)acetamido)-5-((6-(4-((2S,6aS,6bR,7S,8aS,8bS,10R,11aR,12aS,12bS)-2,6b-difluoro-7-hydroxy-8b-(2-hydroxyacetyl)-6a,8a-dimethyl-4-oxo-2,4,6a,6b,7,8,8a,8b,11a,12,12a,12b-dodecahydro-1H-naphtho[2′,1′:4,5]indeno[1,2-d][1,3]dioxol-10-yl)benzyl)spiro[3.3]heptan-2-yl)amino)-5-oxopentanoic acid] | – | – | potency in reducing IL-1β production ([1]; anti-VISTA conjugates, serial dilutions with respect to total ADC concentration (20-0.003 μg/mL), equivalent or reduced DAR): enhanced potency; potency of conjugated linker payloads over INX J (conclusions) [2]: enhanced potency
C[C@]12C=CC(=O)C=C1CC[C@@H]1[C@@H]2[C@@H](O)C[C@@]2(C)[C@H]1C[C@H]1O[C@@H](c3cnc(Cc4cccc(N)c4)s3)O[C@]12C(=O)CO [INX-SM-6] | inhibit | – | inhibition of IL-1β production ([2]; Experiment 2: free payload 1000-1 nM, 24 hr, n=1 donor): show inhibition in IL-1β production
C[C@]12C=CC(=O)C=C1CC[C@@H]1[C@@H]2[C@@H](O)C[C@@]2(C)[C@H]1C[C@H]1O[C@@H](c3ccc(OC4CC5(CC(N)C5)C4)cc3)O[C@]12C(=O)CO (stereo partly drawn) [INX-SM-43, (6aR,6bS,7S,8aS,8bS,10R,11aR,12aS,12bS)-10-(4-((6-aminospiro[3.3]heptan-2-yl)oxy)phenyl)-7-hydroxy-8b-(2-hydroxyacetyl)-6a,8a-dimethyl-1,2,6a,6b,7,8,8a,8b,11a,12, 12a,12b-dodecahydro-4H-naphtho[2′,1′:4,5]indeno[1,2-d][1,3]dioxol-4-one] | moderate inhibition | – | inhibition of huIL1-β ([2]; Experiment 7: free payload, INX-SM-43 100-0.032 nM, INX-SM-44 1000-0.32 nM): moderate inhibition of huIL1-β
